Converted amounts (≈) assume the structure as drawn.
What was measured:
[1] = system: S. aureus ATCC 29213; test: Antimicrobial activity, tube dilution method; assay type: cell-based, Staphylococcus aureus; conditions: four repeated experiments; for MIC: 24 h at 37 °C; for MBC: kills 99.9% or more
Procedure: (§1) Antimicrobial activity was measured via the tube dilution method as described previously. Briefly, E. coli, S. aureus, S. enteritidis and L. monocytogenes were cultured in Mueller-Hinton broth for 24 h at 37 °C. A microorganism suspension of 10^6 cfu mL^−1 (cfu, colony forming units) was prepared from each culture. IL solutions (31.3–1500 mM) were prepared with sterilized Mueller-Hinton broth, and then were sterilized by filtration (0.45 µm pore-diameter membrane). The various permutations of microorganism suspension (50 µL) and IL solution (50 µL) were mixed in 96-well microtiter plate. Growth of the microorganisms was determined visually after incubation for 24 h at 37 °C. Controls were conducted under the same conditions: negative controls without microorganisms and positive controls without ILs. The lowest concentration at which there was no visible growth (turbidity) was taken as the minimal inhibitory concentration (MIC). Samples of 20 µL from each well were spread onto Mueller-Hinton agar medium with inactivates (0.3% lecithin, 3% polysorbate 80 and 0.1% L-cysteine) and incubated for 48 h at 37 °C. The lowest concentration of the IL that killed 99.9% or more of the test bacterium was taken as the minimum biocidal concentration (MBC).

[2] = system: E. coli ATCC 8739; test: Antimicrobial activity, tube dilution method; assay type: cell-based, Escherichia coli; conditions: four repeated experiments; for MIC: 24 h at 37 °C; for MBC: kills 99.9% or more
Procedure: as §1

[3] = system: S. enteritidis ATCC 14128; test: Antimicrobial activity, tube dilution method; assay type: cell-based, Salmonella enteritidis; conditions: four repeated experiments; for MIC: 24 h at 37 °C; for MBC: kills 99.9% or more
Procedure: as §1

[4] = system: L. monocytogenes ATCC 19115; test: Antimicrobial activity, tube dilution method; assay type: cell-based, Listeria monocytogenes; conditions: four repeated experiments; for MIC: 24 h at 37 °C; for MBC: kills 99.9% or more
Procedure: as §1

[5] = molecular target: T1, AChE type VI-S (from the electric eel) (Electrophorus electricus, UniProt O42275); test: AChE inhibition assay (colorimetric, DTNB reduction); assay type: biochemical; conditions: DTNB 0.5 mM, AChE 0.05 U mL^−1, acetylthiocholine iodide 0.5 mM, 37 °C, phosphate buffer pH 8.0; mean ± SD; read-out: EC50±SD (toxicity toward AChE)
T1 construct: purchased Sigma–Aldrich, USA type VI-S (catalogue number not given)
T1 sequence (O42275 24-633): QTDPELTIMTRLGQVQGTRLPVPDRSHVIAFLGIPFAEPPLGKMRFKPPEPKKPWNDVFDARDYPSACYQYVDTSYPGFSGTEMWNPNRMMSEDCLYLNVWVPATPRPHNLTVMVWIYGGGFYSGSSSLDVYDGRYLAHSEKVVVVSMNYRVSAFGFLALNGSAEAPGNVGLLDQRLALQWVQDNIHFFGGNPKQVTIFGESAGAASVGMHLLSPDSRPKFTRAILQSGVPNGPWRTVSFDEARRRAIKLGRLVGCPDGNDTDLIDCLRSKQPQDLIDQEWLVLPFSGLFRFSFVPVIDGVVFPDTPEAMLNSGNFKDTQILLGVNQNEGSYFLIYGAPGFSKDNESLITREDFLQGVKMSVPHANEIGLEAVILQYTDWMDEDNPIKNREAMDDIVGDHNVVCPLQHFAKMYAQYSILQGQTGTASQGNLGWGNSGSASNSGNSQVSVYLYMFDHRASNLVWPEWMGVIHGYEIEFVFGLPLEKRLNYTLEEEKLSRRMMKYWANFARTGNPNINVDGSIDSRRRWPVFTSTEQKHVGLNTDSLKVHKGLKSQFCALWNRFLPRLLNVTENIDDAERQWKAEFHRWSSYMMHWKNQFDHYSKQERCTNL
Procedure: A colorimetric assay based on reduction of DTNB was used to measure AChE inhibition as described previously, [24], in the presence of a phosphate buffer system in order to eliminate the effects of pH changes on enzyme activity. Briefly, IL solutions were prepared with 0.2 M phosphate buffer (pH 8.0) in 96-well microtiter plates. The enzyme (0.2 U mL^−1, plus 0.25 mg mL^−1 bovine serum albumin in the same phosphate buffer), and DTNB (2 mM, plus 0.185 mg mL^−1 NaHCO3 in the same phosphate buffer) were added to each well and kept at 37 °C for 5 min, and then the reaction was initiated by adding acetylthiocholine iodide (2 mM in the same phosphate buffer). In the experimental reactions, the final concentrations of DTNB, acetylthiocholine iodide and AChE were 0.5 mM, 0.5 mM and 0.05 U mL^−1, respectively. Except where stated otherwise, the concentration range used to calculate EC50 of the [Ch][AA] ILs was 0–50 mM. However, for strongly alkaline [Ch][AA] ILs such as [Ch][Lys], the maximum concentration used was 20 mM in order to avoid changes in enzyme activity due to pH changes that would be caused if the IL exceeded the buffering capacity of the phosphate buffer. Acidic amino acid-derived ILs ([Ch][Asp] and [Ch][Glu]) were used up to 80 mM. The control compounds cholinium chloride ([Ch][Cl]), [Bmim][BF4] and acetone were used at concentration ranges of 0–80 mM, 0–50 mM and 10 mM–2.5 M, respectively. Control experiments without enzyme were carried out under otherwise identical conditions. Reduction of DTNB was monitored at 405 nm and at 10 second intervals in a microplate reader (Wallac 1420 VICTOR3, PerkinElmer, Singapore) over a period of 5 min. Enzyme activity was expressed as ΔOD min^−1 obtained via linear regression analysis. All assays were performed at least in triplicate.
All data were analyzed by One-Way analysis of variance using SPSS 11.5 (SPSS Inc., USA). EC50 values are presented as mean ± standard deviation (SD) from at least three repeats, and confidence intervals (α = 0.05) of EC50 are also presented. The One-Way ANOVA was used to judge if the difference between the different ILs groups was significant. When the p value was<0.05, the difference was considered to be significant.

Structure (SMILES)	MIC [1] [mM]	MBC [1] [mM]	MIC [2] [mM]	MBC [2] [mM]	MIC [3] [mM]	MBC [3] [mM]	MIC [4] [mM]	MBC [4] [mM]	EC50 [5] [mM]
CC(=O)[O-].C[N+](C)(C)CCO [[Ch][AcO], Cholinium acetate, reference compound]	500	750	500	750	750	750	500	750	–
CSCC[C@H](N)C(=O)[O-].C[N+](C)(C)CCO [[Ch][Met]]	125	250	31.3	62.5	31.3	62.5	125	250	–
CCC(C)C(N)C(=O)[O-].C[N+](C)(C)CCO (stereo not drawn) [[Ch][Ile]]	93.8	125	46.9	62.5	46.9	62.5	46.9	62.5	3.57 ± 0.07
CC(C)[C@H](N)C(=O)O [[Ch][Val]]	93.8 (≈ 11000 µg/mL)	125 (≈ 14600 µg/mL)	46.9 (≈ 5490 µg/mL)	62.5 (≈ 7320 µg/mL)	46.9 (≈ 5490 µg/mL)	62.5 (≈ 7320 µg/mL)	93.8 (≈ 11000 µg/mL)	125 (≈ 14600 µg/mL)	3.06 ± 0.12
NC(=O)CC[C@H](N)C(=O)O [[Ch][Gln]]	–	–	–	–	–	–	–	–	3.51 ± 0.16
C[C@@H](O)[C@H](N)C(=O)O [[Ch][Thr]]	–	–	–	–	–	–	–	–	3.45 ± 0.15
C[N+](C)(C)CCO.O=C([O-])[C@@H]1CCCN1 [[Ch][Pro]]	93.8	125	46.9	62.5	46.9	62.5	62.5	93.8	–
C[N+](C)(C)CCO.[Cl-] [[Ch][Cl], cholinium chloride, reference compound]	>750	>750	>750	>750	>750	>750	>750	>750	3.16 ± 0.09
NCC(=O)O [[Ch][Gly]]	–	–	–	–	–	–	–	–	3.83 ± 0.17
CC(C)C[C@H](N)C(=O)[O-].C[N+](C)(C)CCO [[Ch][Leu]]	93.8	125	46.9	62.5	46.9	62.5	46.9	62.5	3.36 ± 0.05
C[C@H](N)C(=O)[O-].C[N+](C)(C)CCO [[Ch][Ala]]	188	250	46.9	93.8	62.5	93.8	188	250	–
N[C@@H](CO)C(=O)O [[Ch][Ser]]	–	–	–	–	–	–	–	–	3.56 ± 0.15
CSCC[C@H](N)C(=O)O [[Ch][Met]]	–	–	–	–	–	–	–	–	3.13 ± 0.14
C[C@@H](O)[C@H](N)C(=O)[O-].C[N+](C)(C)CCO [[Ch][Thr]]	125	250	31.3	62.5	46.9	62.5	93.8	125	–

From publication PMC3598705, “Evaluation of Toxicity and Biodegradability of Cholinium Amino Acids Ionic Liquids” (PLoS ONE, 2013)
